Measurements taken from patent US10064839B2, “Methods of treating liver diseases” (Zafgen, Inc., priority 2012, dated 2018).
Values after ≈ are worked out from the molar mass of the structure shown.

How the values were obtained:
HT1080 = HT1080 EC50; assay type: cell-based; conditions: Homo sapiens, HT-1080; second of two values 28/8, key not given
[1] = Plasma protein binding, rat; assay type: in vitro ADME; conditions: read-out: Plasma protein binding (h/r/m, %): r (converted)
CYP3A4 = CYP3A4 (Homo sapiens, UniProt P08684); experiment: CYP3A4 inhibition with pre-incubation; assay type: in vitro ADME; conditions: footnote to CYP IC50, HLM
CYP3A4, sequence (P08684 whole entry): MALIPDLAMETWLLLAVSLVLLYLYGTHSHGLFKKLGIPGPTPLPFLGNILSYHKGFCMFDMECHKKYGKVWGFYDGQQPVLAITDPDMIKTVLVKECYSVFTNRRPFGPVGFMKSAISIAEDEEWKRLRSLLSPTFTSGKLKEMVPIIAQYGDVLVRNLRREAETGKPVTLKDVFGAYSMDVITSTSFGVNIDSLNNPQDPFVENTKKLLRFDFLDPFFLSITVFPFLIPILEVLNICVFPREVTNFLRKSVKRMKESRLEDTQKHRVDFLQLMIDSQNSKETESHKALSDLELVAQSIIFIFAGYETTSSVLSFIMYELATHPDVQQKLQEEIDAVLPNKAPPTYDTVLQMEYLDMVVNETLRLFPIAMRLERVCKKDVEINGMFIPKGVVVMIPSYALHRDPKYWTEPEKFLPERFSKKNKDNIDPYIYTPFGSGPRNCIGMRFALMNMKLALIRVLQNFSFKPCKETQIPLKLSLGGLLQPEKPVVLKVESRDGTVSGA

[2] = i.v. and p.o. exposure study, dog; assay type: in vivo; conditions: plasma
Description: (§1) Mouse, rat and dog studies were conducted to assess i.v. and p.o. (oral) exposure.

[3] = Plasma protein binding, human; assay type: in vitro ADME; conditions: read-out: Plasma protein binding (h/r/m, %): h (converted)
[4] = i.v. and p.o. exposure study, rat; assay type: in vivo
Description: as §1

[5] = tested on: Cell cycle (G1 attenuation); experiment: Cell cycle (G1 attenuation); assay type: cell-based
recombinant human MetAP2 = biological target: T1, recombinant human MetAP2 (Homo sapiens, UniProt P50579); experiment: Recombinant human MetAP2 inhibition assay (MAS substrate, Amplex red fluorescence); assay type: biochemical; conditions: first value of the cell; read-out: MetAP2/MetAP1 IC50 (nM): MetAP2
T1 construct: made in house; host or cells: Sf9 insect cells
T1 sequence (P50579 whole entry): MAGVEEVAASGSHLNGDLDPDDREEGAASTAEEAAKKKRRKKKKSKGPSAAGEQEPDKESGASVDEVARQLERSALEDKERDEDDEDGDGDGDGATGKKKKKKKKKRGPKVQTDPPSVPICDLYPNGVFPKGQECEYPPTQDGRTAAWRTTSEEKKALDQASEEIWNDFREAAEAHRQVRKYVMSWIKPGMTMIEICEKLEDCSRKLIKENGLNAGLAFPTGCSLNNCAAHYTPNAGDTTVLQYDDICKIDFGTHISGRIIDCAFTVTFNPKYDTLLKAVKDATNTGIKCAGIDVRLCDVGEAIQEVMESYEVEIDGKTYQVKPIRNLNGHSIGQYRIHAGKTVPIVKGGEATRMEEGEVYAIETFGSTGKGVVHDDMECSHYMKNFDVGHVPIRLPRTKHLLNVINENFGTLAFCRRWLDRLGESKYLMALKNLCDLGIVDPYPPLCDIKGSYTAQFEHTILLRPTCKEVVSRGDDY
Description: Compounds are tested for their capacity to inhibit recombinant human MetAP2 activity using the following assay.
Human recombinant MetAP2 expressed in Sf9 cells followed by affinity purification and EDTA treatment to remove endogenous active site cation was dialysed against MnCl2 to produce the manganese enzyme used in the assay. The assay was carried out for 30 minutes at 25° C. in 50 mM HEPES buffer containing 100 mM NaCl, pH 7.5 the presence of 0.75 mM Methionine-Alanine-Serine (MAS) substrate and 50 µg/ml amino acid oxidase using a dilution of purified MetAP2 giving >3-fold signal: noise. Cleavage of the substrate by MetAP2 and oxidation of free methionine by amino acid oxidase was detected and quantified using fluorescence generated by Amplex red (10-acetyl-3,7-dihydroxyphenoxazine) in combination with horseradish peroxidase which detects H2O2 released during the oxidation step. The fluorescent signal was detected using a multiwell fluorimeter. Compounds were diluted in DMSO prior to addition to assay buffer, the final DMSO concentration in the assay being 1%.
IC50 values are calculated using the XLfit software package (version 2.0.5).

72 receptors and enzymes = experiment: CEREP screen; conditions: at 10 μM across 72 receptors and enzymes
CYP (isoform not given) = experiment: CYP IC50, HLM; assay type: in vitro ADME; conditions: human, human liver microsomes
Solubility = assay type: physicochemical; conditions: aqueous buffer; at pH 7.4
hERG = hERG (Homo sapiens, UniProt Q12809); experiment: hERG IC50
hERG, sequence (Q12809 whole entry): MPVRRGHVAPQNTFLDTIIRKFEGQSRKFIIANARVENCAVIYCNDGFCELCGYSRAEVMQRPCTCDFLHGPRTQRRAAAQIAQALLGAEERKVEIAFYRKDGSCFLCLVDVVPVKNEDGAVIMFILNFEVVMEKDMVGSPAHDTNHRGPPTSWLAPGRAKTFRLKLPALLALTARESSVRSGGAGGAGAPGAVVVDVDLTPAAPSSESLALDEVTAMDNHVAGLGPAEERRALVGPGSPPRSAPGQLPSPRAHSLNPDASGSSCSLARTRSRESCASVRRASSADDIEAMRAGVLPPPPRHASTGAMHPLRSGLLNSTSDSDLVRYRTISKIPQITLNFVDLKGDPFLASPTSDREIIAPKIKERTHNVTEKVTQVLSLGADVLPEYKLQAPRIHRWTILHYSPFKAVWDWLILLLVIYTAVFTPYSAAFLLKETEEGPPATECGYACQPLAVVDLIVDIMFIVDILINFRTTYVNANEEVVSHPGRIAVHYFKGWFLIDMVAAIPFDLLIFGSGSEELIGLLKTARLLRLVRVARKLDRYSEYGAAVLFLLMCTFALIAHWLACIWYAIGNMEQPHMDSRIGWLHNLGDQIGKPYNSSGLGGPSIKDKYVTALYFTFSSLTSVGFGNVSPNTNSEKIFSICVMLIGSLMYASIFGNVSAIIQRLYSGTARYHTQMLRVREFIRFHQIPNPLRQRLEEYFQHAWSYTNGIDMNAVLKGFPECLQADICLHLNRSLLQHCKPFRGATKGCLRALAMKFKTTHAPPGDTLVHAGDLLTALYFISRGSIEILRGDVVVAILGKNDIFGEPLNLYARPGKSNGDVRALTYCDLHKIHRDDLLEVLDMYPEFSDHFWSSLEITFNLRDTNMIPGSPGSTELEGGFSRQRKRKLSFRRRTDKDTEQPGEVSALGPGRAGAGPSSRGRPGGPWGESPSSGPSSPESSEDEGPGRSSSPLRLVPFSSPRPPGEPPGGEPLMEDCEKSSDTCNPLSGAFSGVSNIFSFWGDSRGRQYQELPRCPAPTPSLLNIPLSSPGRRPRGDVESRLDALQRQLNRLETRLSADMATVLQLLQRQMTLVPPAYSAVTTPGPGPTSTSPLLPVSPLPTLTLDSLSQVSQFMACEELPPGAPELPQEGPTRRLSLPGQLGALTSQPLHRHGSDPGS

[6] = Plasma protein binding, mouse; assay type: in vitro ADME; conditions: read-out: Plasma protein binding (h/r/m, %): m
[7] = i.v. and p.o. exposure study, mouse; assay type: in vivo
Description: as §1

MetAP1 = MetAP1 (Homo sapiens, UniProt P53582); experiment: MetAP1 IC50; assay type: biochemical; conditions: second value of the cell; read-out: MetAP2/MetAP1 IC50 (nM): MetAP1
[8] = liver/plasma, po, read-out: liver/plasma ratio
[9] = plasma, iv, read-out: Plasma T1/2 (converted)

With CCN(CC)C/C=C\c1cc(F)ccc1S(=O)(=O)Nc1ccc2c(c1C(=O)O)OC[C@@H]1C[C@H]21 (single isomer, unassigned) [Example 12] as the compound, how does the EC50 (HT1080) read?
The EC50 was 0.008 µM.

And the fraction unbound [1]?
Its fraction unbound is 0.189.

What about the “CYP3A4 signal with pre-incubation” value (CYP3A4) of the same compound?
The value was “*CYP3A4 signal observed with pre-incubation”.

What about the clearance ([2]; iv) of the same compound?
Its clearance is 14 mL/min/kg.

What about the half-life ([2]; iv, read-out: Plasma T1/2 (converted)) of the same compound?
Its half-life is 3.6 h.

And the Vd ([2]; iv, read-out: Vss)?
The Vd was 1.3 L/kg.

And the AUC ([2]; po)?
Its AUC is 711 ng·h/mL.

And the bioavailability ([2]; po)?
Its bioavailability is 20%.

What about the fraction unbound [3] of the same compound?
Its fraction unbound is 0.228.

And the Kp [4, 8]?
Its Kp is 39.

And the clearance ([4]; plasma, iv)?
Its clearance is 54 mL/min/kg.

And the half-life [4, 9]?
Its half-life is 1.2 h.

And the Vd ([4]; plasma, iv, read-out: Vss)?
The Vd was 3.4 L/kg.

And the AUC ([4]; plasma, po)?
Its AUC is 356 ng·h/mL.

What about the bioavailability ([4]; plasma, po) of the same compound?
Its bioavailability is 22%.

What about the “Cell cycle (G1 attenuation, nM)” value [5] of the same compound?
Its value is 3 nM.

What about the IC50 (recombinant human MetAP2) of the same compound?
The IC50 was 25 nM.

What about the “CEREP screen, inhibition” value (72 receptors and enzymes) of the same compound?
Its value is under 35% inhibition at 10 μM.

What about the IC50 (CYP (isoform not given)) of the same compound?
The IC50 was over 10 µM.

And the solubility (Solubility)?
Its solubility is about 100 µg/mL (≈ 211 µM).

What about the IC50 (hERG) of the same compound?
The IC50 was over 33 µM.

What about the fraction unbound [6] of the same compound?
Its fraction unbound is over 0.3.

What about the Kp [7, 8] of the same compound?
Its Kp is 38.

And the clearance ([7]; plasma, iv)?
Its clearance is 126 mL/min/kg.

What about the half-life [7, 9] of the same compound?
Its half-life is 0.9 h.

What about the Vd ([7]; plasma, iv, read-out: Vss) of the same compound?
The Vd was 3.1 L/kg.

And the AUC ([7]; plasma, po)?
The AUC was 497 ng·h/mL.

What about the bioavailability ([7]; plasma, po) of the same compound?
The bioavailability was 53%.

And the IC50 (MetAP1)?
The IC50 was 50000 nM.
